Experimental data taken from ChEMBL document CHEMBL2375302, “Synthesis, antimicrobial, antiquorum-sensing, antitumor and cytotoxic activities of new series of fused [1,3,4]thiadiazoles” (Eur J Med Chem, 2013).
Converted amounts (≈) assume the structure as drawn.

What was measured:
[1] = test system: Aspergillus fumigatus; assay: Antifungal activity against Aspergillus fumigatus Af293 at 5 mg/mL after 48 hrs; assay type: functional; details: Af293, 48 h, read-out: DIZ
[2] = Toxicity against brine shrimp larvae assessed as mortality at 10 ug/mL after 24 hrs by binocular microscopic analysis relative to control; assay type: organism-based; details: artemia salina, in vivo
[3] = test system: Bacillus cereus; assay: Antibacterial activity against Bacillus cereus at 5 mg/mL after 24 hrs; assay type: functional; details: read-out: DIZ
[4] = test system: Candida albicans; assay: Antifungal activity against Candida albicans at 5 mg/mL after 48 hrs; assay type: functional; details: read-out: DIZ
[5] = (§1) Toxicity against brine shrimp larvae assessed as mortality after 24 hrs by binocular microscopic analysis; assay type: organism-based; details: artemia salina, in vivo
[6] = test system: Artemia salina; assay: as §1; assay type: organism-based; details: in vivo, 24 h
[7] = Toxicity against brine shrimp larvae assessed as mortality at 1000 ug/mL after 24 hrs by binocular microscopic analysis relative to control; assay type: organism-based; details: artemia salina, in vivo
[8] = Toxicity against brine shrimp larvae assessed as mortality at 100 ug/mL after 24 hrs by binocular microscopic analysis relative to control; assay type: organism-based; details: artemia salina, in vivo
[9] = test system: Staphylococcus aureus; assay: Antibacterial activity against Staphylococcus aureus at 5 mg/mL after 24 hrs; assay type: functional; details: read-out: DIZ
[10] = test system: Aspergillus flavus; assay: Antifungal activity against Aspergillus flavus 3372 at 5 mg/mL after 48 hrs; assay type: functional; details: Aspergillus flavus, 3372, 48 h; read-out: DIZ
[11] = test system: Chromobacterium violaceum; assay: Antiquorum-sensing activity against Chromobacterium violaceum ATCC 12472 after 48 hrs; assay type: functional
[12] = Toxicity against brine shrimp larvae assessed as mortality at 500 ug/mL after 24 hrs by binocular microscopic analysis relative to control; assay type: organism-based; details: artemia salina, in vivo
[13] = test system: Escherichia coli; assay: Antibacterial activity against Escherichia coli at 5 mg/mL after 24 hrs; assay type: functional; details: read-out: DIZ

Structure (SMILES)	zone of inhibition at 5000 µg/mL [1] [mm]	mortality at 24 h, 10 ug/mL [2] [%]	zone of inhibition at 5000 µg/mL [3] [mm]	zone of inhibition at 5000 µg/mL [4] [mm]	LC50 at 24 h [5] [µg/mL]	LC90 [6] [µg/mL]	mortality at 24 h, 1000 ug/mL [7] [%]	mortality at 24 h, 100 ug/mL [8] [%]	zone of inhibition at 5000 µg/mL [9] [mm]	zone of inhibition at 5000 µg/mL [10] [mm]	diameter of the inhibition zone (DIZ) [11] [mm]	mortality at 24 h, 500 ug/mL [12] [%]	zone of inhibition at 5000 µg/mL [13] [mm]
CCOC(=O)C1C(=O)N=C2SC(S(N)(=O)=O)=NN2C1c1ccc(Cl)cc1 (stereo unspecified)	< 2	36.6	4	< 2	508 (≈ 1220 µM)	914.63 (≈ 2190 µM)	83.3	53.3	3	< 2	11	70	< 2
CCOC(=O)C1C(=O)N=C2SC(S(N)(=O)=O)=NN2C1c1ccc(OC)c(OC)c1 (stereo unspecified)	< 2	50	7	4	442 (≈ 1000 µM)	796.46 (≈ 1800 µM)	93.3	70	8	< 2	8	83.3	< 2
N#CC1C(=O)N=C2SC(S(N)(=O)=O)=NN2C1c1ccc(Cl)cc1 (stereo unspecified)	6	23.3	< 2	8	660 (≈ 1780 µM)	1187.33 (≈ 3210 µM)	66.6	36.6	< 2	< 2	11	50	< 2
COc1ccc(C2C(C#N)C(=O)N=C3SC(S(N)(=O)=O)=NN32)cc1OC (stereo unspecified)	8	36.6	9	24	598 (≈ 1510 µM)	1076.55 (≈ 2720 µM)	70	50	10	< 2	8	60	< 2
CN(C)c1ccc(C2C(C#N)C(=O)N=C3SC(S(N)(=O)=O)=NN32)cc1 (stereo unspecified)	8	70	6	32	400 (≈ 1060 µM)	719.42 (≈ 1900 µM)	100	86.6	7	< 2	6	96.6	< 2
Nc1c(/N=N/c2ccccc2)c(=O)nc2sc(S(N)(=O)=O)nn12	< 2	66.6	7	4	419 (≈ 1190 µM)	755.03 (≈ 2150 µM)	96.6	80	7	< 2	<2	90	10
Nc1c(/N=N/c2ccc(Br)cc2)c(=O)nc2sc(S(N)(=O)=O)nn12	4	46.6	5	6	460 (≈ 1070 µM)	827.2 (≈ 1920 µM)	90	66.6	9	< 2	12	80	< 2
Cc1ccc(/N=N/c2c(N)n3nc(S(N)(=O)=O)sc3nc2=O)cc1	6	90	3	12	392 (≈ 1070 µM)	706.43 (≈ 1930 µM)	100	96.6	8	5	12	100	4
COc1ccc(/N=N/c2c(N)n3nc(S(N)(=O)=O)sc3nc2=O)cc1	< 2	73.3	3	6	404 (≈ 1060 µM)	726.97 (≈ 1910 µM)	100	86.6	8	5	11	93.3	5
COc1ccc2c(c1)CCC1=C2N=C2SC(S(N)(=O)=O)=NN2C1c1ccc(Br)cc1 (stereo unspecified)	6		< 2	14					< 2	< 2	<2		< 2
COc1ccc2c(c1)CCC1=C2N=C2SC(S(N)(=O)=O)=NN2C1c1ccc(Cl)cc1 (stereo unspecified)	< 2	50	< 2	< 2	438 (≈ 951 µM)	788.78 (≈ 1710 µM)	96.6	66.6	< 2	< 2	<2	80	< 2
COc1ccc2c(c1)CCC1=C2N=C2SC(S(N)(=O)=O)=NN2C1c1ccc(OC)c(OC)c1 (stereo unspecified)		46.6			455 (≈ 936 µM)	819.67 (≈ 1680 µM)	93.3	63.3				76.6	
N=c1cc(N)n2nc(S(N)(=O)=O)sc2n1	< 2		< 2	< 2					< 2	< 2	<2		< 2
NS(=O)(=O)C1=NN2C(=O)c3ccccc3NC(c3ccsc3)/N=C\2S1 (stereo unspecified)	< 2	46.6	< 2	< 2	477 (≈ 1210 µM)	858.77 (≈ 2180 µM)	86.6	66.6	< 2	< 2	6	76.6	< 2
NS(=O)(=O)C1=NN2CCC(=O)N=C2S1	8	70	4	12	399 (≈ 1700 µM)	717.7 (≈ 3060 µM)	100	90	16	10	<2	96.6	11
NS(=O)(=O)C1=NN2CC(=O)N=C2S1	< 2		< 2	5					< 2	< 2	<2		< 2
NS(=O)(=O)C1=NN2C(=NC(=O)/C2=C\c2ccc(Br)cc2)S1	< 2	23.3	2	8	551 (≈ 1420 µM)	992.28 (≈ 2560 µM)	80	40	2	< 2	<2	60	< 2
COc1ccc(/C=C2\C(=O)N=C3SC(S(N)(=O)=O)=NN32)cc1OC	16	63.3	4	4	425 (≈ 1150 µM)	765.3 (≈ 2080 µM)	96.6	76.6	4	7	<2	86.6	< 2
CC1(C)S[C@@H]2[C@H](NC(=O)[C@H](N)c3ccccc3)C(=O)N2[C@H]1C(=O)O [AMPICILLIN]			3.5						14				23
OC(Cn1cncn1)(Cn1cncn1)c1ccc(F)cc1F [FLUCONAZOLE]	< 2			22						< 2			
O=c1[nH]cc(F)c(=O)[nH]1 [FLUOROURACIL]		63.3			409 (≈ 3150 µM)	736.49 (≈ 5660 µM)	100	83.3				90	
